According to patent US7307063B2, “Melanocortin metallopeptides for treatment of sexual dysfunction” (Palatin Technologies, Inc., priority 2001, dated 2007):
One block for each substance: values may come before it. Non-standard residues stand in square brackets, D forms with d. Nle = CCCC[C@H](N)C(=O)O

Assays:
MC1-R = molecular target: T1, MC1-R (Mus musculus, UniProt Q01727); test: Competitive binding assay: inhibition of 125I-NDP-α-MSH binding to membranes from B16-F10 mouse melanoma cells
T1 construct: MC1-R membranes were isolated from B16—F10 mouse melanoma cells; endogenous in cells; host or cells: B16-F10 mouse melanoma cells
Procedure, shortened: (§1)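 Test metallopeptides, complexed to rhenium, compete with 125I-NDP-α-MSH for receptor sites on mouse B16-F10 or human-receptor HEK-293 membranes. Specific binding is the cpm difference without and with 1 μM α-MSH, and values are percent inhibition.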

hMC3-R = molecular target: T2, hMC3-R (Homo sapiens, UniProt P41968); test: Competitive binding assay: inhibition of 125I-NDP-α-MSH binding to HEK-293 membranes with cloned human receptor subtype 3; details: Table 1; 1 μM Re-complexed peptide
T2 construct: expressed in transfected cells; host or cells: HEK-293
Protocol: Rhenium-complexed metallopeptides of the formulas given in Table 1 were prepared, with the metallopeptides complexed with rhenium using the rhenium transfer agent ReOCl3(PPh3)2 in the presence of 1,8-Diazabicyclo[5,4,0] undec-7-ene as a base, as disclosed in International Application PCT/US00/16396, filed Jun. 14, 2000, Melanocortin Metallopeptide Constructs, Combinatorial Libraries and Applications, incorporated by reference herein. Affinities of compounds were measured using membranes from HEK-293 cells containing cloned human melanocortin receptor subtypes 3, 4 and 5. MC1-R membranes were isolated from B16—F10 mouse melanoma cells. The assay tube also contained a chosen concentration of the test peptide of this invention, complexed to a rhenium metal ion as indicated, for determining its efficacy in inhibiting the binding of ^125I-NDP-α-MSH to its receptor. Non-specific binding was measured by complete inhibition of binding of ^125I-NDP-α-MSH in the assay with the presence of 1 μM α-MSH. 100% specific binding was defined as the difference in radioactivity (cpm) bound to cell membranes in the absence and presence of 1 μM α-MSH. The cpm obtained in presence of test compounds were normalized with respect to 100% specific binding to determine the percent inhibition of ^125I-NDP-α-MSH binding.

MC4-R [1] = molecular target: T3, MC4-R (Homo sapiens, UniProt P32245); test: Competitive binding assay: inhibition of 125I-NDP-α-MSH binding to HEK-293 membranes with cloned human receptor subtype 4
T3 construct: expressed in transfected cells; host or cells: HEK-293
Procedure, shortened: as §1

hMC5-R = molecular target: T4, hMC5-R (Homo sapiens, UniProt P33032); test: Competitive binding assay: inhibition of 125I-NDP-α-MSH binding to HEK-293 membranes with cloned human receptor subtype 5
T4 construct: expressed in transfected cells; host or cells: HEK-293
Procedure, shortened: as §1

MC4-R [2] = molecular target: T3, MC4-R; test: Functional activity assay: intracellular cAMP in HEK-293 cells expressing MC4-R; assay type: cell-based; details: Re-complexed peptide
Protocol: Rhenium-complexed metallopeptides were prepared, with functional evaluation of peptides at MC1-R and MC4-R performed by measuring the accumulation of intracellular cAMP in HEK-293 cells expressing MC4-R or B16-F10 mouse melanoma cells expressing MC1-R. Antagonistic activity was determined by measuring the inhibition of α-MSH-induced cAMP levels following exposure to peptide. Cells, suspended in Earle's Balanced Salt Solution containing 10 mM HEPES, pH 7.5, 5 mM MgCl2, 1 mM glutamine, 0.1% albumin and 0.6 mM 3-isobutyl-1-methyl-xanthine, a phosphodiesterase inhibitor, were plated in 96 well plates at a density of 0.5×10^5 cells per well. Cells were incubated with the test peptides in the presence or absence of α-MSH for 1 hour at 37° C. cAMP levels were measured by EIA (Amersham) in the cell lysates. Data analysis and EC50 values were determined using nonlinear regression analysis with Prism Graph-Pad software.

Male Sprague-Dawley rats [3] = test: Penile erection behavior dose response animal studies; assay type: in vivo, rat; details: for Induction of penile erections (PEs) in rat model, in words: rats, IV
Protocol: For behavioral experiments test solutions of rhenium-complexed metallopeptides were freshly prepared in DMSO and diluted in saline. Male Sprague-Dawley rats (Taconic) weighing 200-250 g were kept on a 12 hour on/off light cycle with food and water ad libitum. All behavioral studies were performed between 10 a.m. and 5 p.m. Groups of 3-10 rats were treated with the rhenium-complexed metallopeptides at a variety of doses via intravenous (IV) injection. In a second experimental paradigm, rats were treated a selected compound intranasally (IN) using a micropipet to deliver 25 μl of solution into one nostril. Immediately after treatment, rats were placed into individual Lucite cages (27 cm long, 16 cm wide and 25 cm high) for behavioral observation.

Male Sprague-Dawley rats [4] = test: Combination penile erection behavior studies: antagonist IV before IN agonist; assay type: in vivo, rat; details: effect induced by 50 µg/kg intranasal Ac-Nle-cyclo(-Asp-His-D-Phe-Arg-Trp-Lys)-OH;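 for Mean Penile Erections/Rat: Erections counted over 30 min observation after IN dosing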;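 for Percent with Penile Erections: Erections counted over 30 min observation after IN dosing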
hMC2-R = molecular target: T5, hMC2-R (Homo sapiens, UniProt P41968); test: Competitive binding assay of additional compounds, Table 6 hMC2-R; details: 1 μM, mean of triplicate
T5 construct: expressed in transfected cells; host or cells: HEK-293

Male Sprague-Dawley rats [5] = test: Combination penile erection behavior studies: antagonist IV before IN agonist; assay type: in vivo, rat; details: for Effect on erectile behavior induced by Ac-Nle-cyclo(-Asp-His-D-Phe-Arg-Trp-Lys)-OH, in words: rats, antagonist IV before IN agonist;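 for Mean Penile Erections/Rat: Erections counted over 30 min observation after IN dosing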;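 for Percent with Penile Erections: Erections counted over 30 min observation after IN dosing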
Protocol: Conditions were as in Example 3 except as noted. Groups of 5-6 rats received an IV dose of either placebo or antagonist 5 minutes prior to an IN dose of either placebo or agonist. Two antagonists were used: ReO[Heptanoyl-Ser(Bzl)-D-Nal 2′-Arg-Trp-Cys-NH2] and SHU9119 (Hruby V J, Lu D, Sharma S D, et al. J Med Chem 38:3454-3461 (1995)), Ac-Nle-cyclo(-Asp-His-D-Nal 2′-Arg-Trp-Lys)-NH2. The agonist used was Ac-Nle-cyclo(-Asp-His-D-Phe-Arg-Trp-Lys)-OH. Immediately after IN treatment, rats were placed into individual Lucite cages for observation. […] In combination studies, the antagonist was dosed IV 5 minutes prior to a 50 μg/kg IN dose of Ac-Nle-cyclo(-Asp-His-D-Phe-Arg-Trp-Lys)-OH.
These studies were conducted as described above in Example 4 with metallopeptide antagonists administered IV five minutes before IN administration of 50 μg/kg Ac-Nle-cyclo(-Asp-His-D-Phe-Arg-Trp-Lys)-OH. […] The potency of these antagonists also correlated with their relative binding affinities in the in vitro binding assays.

[6] = Table 1, 1 μM Re-complexed peptide
[7] = IV 150 μg/kg, 30 min observation
[8] = Table 6, 1 μM, mean of triplicate
[9] = IV 50 μg/kg, 30 min observation
[10] = combination: antagonist 5 μg/kg IV 5 min prior to 50 μg/kg IN Ac-Nle-cyclo(-Asp-His-D-Phe-Arg-Trp-Lys)-OH
[11] = agonist alone 50 μg/kg IN, arm of the ReO[Heptanoyl-Ser(Bzl)-D-Nal 2′-Arg-Trp-Cys-NH2] study
[12] = agonist alone 50 μg/kg IN, arm of the SHU9119 study
[13] = combination: antagonist 200 μg/kg IV 5 min prior to 50 μg/kg IN Ac-Nle-cyclo(-Asp-His-D-Phe-Arg-Trp-Lys)-OH

T1 sequence (Q01727 whole entry): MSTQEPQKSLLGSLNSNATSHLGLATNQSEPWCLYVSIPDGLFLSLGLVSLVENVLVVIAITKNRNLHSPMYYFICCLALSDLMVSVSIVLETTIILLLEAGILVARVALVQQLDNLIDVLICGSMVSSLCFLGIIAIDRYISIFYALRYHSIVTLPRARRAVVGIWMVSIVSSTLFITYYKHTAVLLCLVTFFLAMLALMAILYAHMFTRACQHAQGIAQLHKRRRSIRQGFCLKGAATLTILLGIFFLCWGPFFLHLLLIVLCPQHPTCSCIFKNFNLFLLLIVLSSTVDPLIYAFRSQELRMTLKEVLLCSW
T4 sequence (P33032 whole entry): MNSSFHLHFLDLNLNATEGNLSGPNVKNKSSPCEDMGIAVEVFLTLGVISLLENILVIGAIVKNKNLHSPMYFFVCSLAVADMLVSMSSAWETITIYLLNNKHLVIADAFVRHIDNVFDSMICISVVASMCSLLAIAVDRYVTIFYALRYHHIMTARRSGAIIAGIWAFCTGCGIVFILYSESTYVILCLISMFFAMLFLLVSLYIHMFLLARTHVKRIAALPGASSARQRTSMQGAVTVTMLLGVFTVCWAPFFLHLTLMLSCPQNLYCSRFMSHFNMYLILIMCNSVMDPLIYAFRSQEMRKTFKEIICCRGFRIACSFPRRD
T2 sequence (P41968 whole entry): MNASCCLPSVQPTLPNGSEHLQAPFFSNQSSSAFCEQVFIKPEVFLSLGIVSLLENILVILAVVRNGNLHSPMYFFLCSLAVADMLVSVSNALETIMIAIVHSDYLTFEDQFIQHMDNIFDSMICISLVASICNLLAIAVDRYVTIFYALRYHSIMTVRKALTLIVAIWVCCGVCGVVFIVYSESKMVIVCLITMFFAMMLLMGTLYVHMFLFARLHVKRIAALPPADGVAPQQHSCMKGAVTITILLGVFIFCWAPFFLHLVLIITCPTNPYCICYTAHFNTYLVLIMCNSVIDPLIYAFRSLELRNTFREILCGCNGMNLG
T3 sequence (P32245 whole entry): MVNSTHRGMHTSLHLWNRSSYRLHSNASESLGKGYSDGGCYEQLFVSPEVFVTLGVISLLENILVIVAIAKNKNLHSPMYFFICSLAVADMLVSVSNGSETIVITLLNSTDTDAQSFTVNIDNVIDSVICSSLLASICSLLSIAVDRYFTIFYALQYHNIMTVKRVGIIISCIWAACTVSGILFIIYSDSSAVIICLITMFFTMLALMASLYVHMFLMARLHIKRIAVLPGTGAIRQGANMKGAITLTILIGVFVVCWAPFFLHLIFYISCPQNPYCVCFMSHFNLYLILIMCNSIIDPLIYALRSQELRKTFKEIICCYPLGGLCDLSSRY
T5 sequence (P41968 whole entry): as the sequence (P41968 whole entry) above

Substance: 3′-Br Phenyl acetyl-Arg-Arg-D-Phe(4′-Cl)-Cys-Trp-NH2
% Inhibition of Binding MC1-R (MC1-R; [6]): 97% | % Inhibition of Binding MC1-R (MC1-R; [8]): 91% | % Inhibition of Binding hMC4-R (MC4-R [1]; [6]): 100% | % Inhibition of Binding hMC4-R (MC4-R [1]; [8]): 92% | % Inhibition of Binding hMC5-R (hMC5-R; [8]): 89% | % Inhibition of Binding hMC2-R (hMC2-R): 48% | Functional activity at MC4-R (cAMP accumulation; inhibition of α-MSH-induced cAMP) (MC4-R [2]): MC4-R agonists | Mean Penile Erections/Rat (Male Sprague-Dawley rats [3]; [9]): 0.5

Substance: NH2(CH2)6CO-Ser(Bzl)-D-Nal 2′-Arg-D-Trp-Cys-NH2
% Inhibition of Binding MC1-R (MC1-R; [8]): 6% | % Inhibition of Binding hMC4-R (MC4-R [1]; [8]): 92% | % Inhibition of Binding hMC5-R (hMC5-R; [8]): 83% | % Inhibition of Binding hMC2-R (hMC2-R): 58% | Functional activity at MC4-R (cAMP accumulation; inhibition of α-MSH-induced cAMP) (MC4-R [2]): MC4-R antagonists

Substance: Ac-Nle-cyclo(-Asp-His-D-Nal 2′-Arg-Trp-Lys)-NH2
Mean Penile Erections/Rat (Male Sprague-Dawley rats [5]; antagonist alone, 5 μg/kg IV): 0 | Percent with Penile Erections (Male Sprague-Dawley rats [5]; antagonist alone, 5 μg/kg IV): 0% | Mean Penile Erections/Rat (Male Sprague-Dawley rats [5]; [10]): 0 | Percent with Penile Erections (Male Sprague-Dawley rats [5]; [10]): 0% | Effect on erectile behavior induced by Ac-Nle-cyclo(-Asp-His-D-Phe-Arg-Trp-Lys)-OH, in words (Male Sprague-Dawley rats [5]): blocked

Substance: Ac-Nle-cyclo(-Asp-His-D-Phe-Arg-Trp-Lys)-OH
Mean Penile Erections/Rat (Male Sprague-Dawley rats [5]; [11]): 1.2 ± 0.3 | Percent with Penile Erections (Male Sprague-Dawley rats [5]; [11]): 83% | Mean Penile Erections/Rat (Male Sprague-Dawley rats [5]; [12]): 1.6 ± 0.2 | Percent with Penile Erections (Male Sprague-Dawley rats [5]; [12]): 100%

Substance: Heptanoyl-Ser(Bzl)-D-Nal 2′-Arg-Trp-Cys-NH2
% Inhibition of Binding MC1-R (MC1-R; [6]): 19% | % Inhibition of Binding hMC3-R (hMC3-R): 64% | % Inhibition of Binding hMC4-R (MC4-R [1]; [6]): 97% | % Inhibition of Binding hMC5-R (hMC5-R; [6]): 98% | Functional activity at MC4-R (cAMP accumulation; inhibition of α-MSH-induced cAMP) (MC4-R [2]): MC4-R antagonists | Mean Penile Erections/Rat (Male Sprague-Dawley rats [3]; [7]): 0 | Induction of penile erections (PEs) in rat model, in words (Male Sprague-Dawley rats [3]): inactive in inducing PEs | Inhibitory effect on agonist-induced PE response, in words (Male Sprague-Dawley rats [5]; IV 0, 100, 150 and 200 μg/kg, FIG. 8): increased with dose | Mean Penile Erections/Rat (Male Sprague-Dawley rats [5]; antagonist alone, 200 μg/kg IV): 0 | Percent with Penile Erections (Male Sprague-Dawley rats [5]; antagonist alone, 200 μg/kg IV): 0% | Mean Penile Erections/Rat (Male Sprague-Dawley rats [5]; [13]): 0 | Percent with Penile Erections (Male Sprague-Dawley rats [5]; [13]): 0% | Effect on erectile behavior induced by Ac-Nle-cyclo(-Asp-His-D-Phe-Arg-Trp-Lys)-OH, in words (Male Sprague-Dawley rats [5]): blocked | Percent PE Inhibition (Male Sprague-Dawley rats [4]; antagonist 100 μg/kg IV): 14.28% | Percent PE Inhibition (Male Sprague-Dawley rats [4]; antagonist 150 μg/kg IV): 50% | Percent PE Inhibition (Male Sprague-Dawley rats [4]; antagonist 200 μg/kg IV): 100%

Second part, led by results:

% Inhibition of Binding MC1-R (MC1-R; [6]): 34% | % Inhibition of Binding hMC3-R (hMC3-R): 51% | % Inhibition of Binding hMC4-R (MC4-R [1]; [6]): 99% | % Inhibition of Binding hMC5-R (hMC5-R; [6]): 95% | Functional activity at MC4-R (cAMP accumulation; inhibition of α-MSH-induced cAMP) (MC4-R [2]): MC4-R antagonists
Substance: D-(N-Bzl)Nal 2′-Arg-Trp-Cys-NH2
Mean Penile Erections/Rat (Male Sprague-Dawley rats [3]; [7]): 0 | Induction of penile erections (PEs) in rat model, in words (Male Sprague-Dawley rats [3]): inactive in inducing PEs | Percent PE Inhibition (Male Sprague-Dawley rats [4]; antagonist 100 μg/kg IV): 14.28% | Percent PE Inhibition (Male Sprague-Dawley rats [4]; antagonist 150 μg/kg IV): 100%

% Inhibition of Binding MC1-R (MC1-R; [6]): 91% | % Inhibition of Binding hMC3-R (hMC3-R): 70% | % Inhibition of Binding hMC4-R (MC4-R [1]; [6]): 89% | % Inhibition of Binding hMC5-R (hMC5-R; [6]): 93% | Functional activity at MC4-R (cAMP accumulation; inhibition of α-MSH-induced cAMP) (MC4-R [2]): MC4-R agonists
Substance: Ac-Nle-Ala-His-D-Phe-Arg-Trp-Cys-NH2 ({Ac-Nle-Ala-H2N}-[dF]RWC-NH2; also: ReO complex)
% with Penile Erections (Male Sprague-Dawley rats [3]; IN 10 μg/kg, 10 rats): 70% | Mean Penile Erections/Rat (Male Sprague-Dawley rats [3]; IN 10 μg/kg, 10 rats): 0.9 ± 0.2 | Mean Penile Erections/Rat (Male Sprague-Dawley rats [3]; IV 10 μg/kg, 30 min observation): 0.25 | Mean Penile Erections/Rat (Male Sprague-Dawley rats [3]; IV 30 μg/kg, 30 min observation): 0.75 | Mean Penile Erections/Rat (Male Sprague-Dawley rats [3]; [9]): 1.0

% Inhibition of Binding MC1-R (MC1-R; [6]): 1% | % Inhibition of Binding hMC3-R (hMC3-R): 6% | % Inhibition of Binding hMC4-R (MC4-R [1]; [6]): 66% | % Inhibition of Binding hMC5-R (hMC5-R; [6]): 60% | Functional activity at MC4-R (cAMP accumulation; inhibition of α-MSH-induced cAMP) (MC4-R [2]): MC4-R antagonists
Substance: Heptanoyl-Ser(Bzl)-D-Nal 2′-Arg-D-Trp-Cys-NH2
Mean Penile Erections/Rat (Male Sprague-Dawley rats [3]; [7]): 0 | Induction of penile erections (PEs) in rat model, in words (Male Sprague-Dawley rats [3]): inactive in inducing PEs | Percent PE Inhibition (Male Sprague-Dawley rats [4]; antagonist 200 μg/kg IV): 50% | Percent PE Inhibition (Male Sprague-Dawley rats [4]; antagonist 500 μg/kg IV): 40%
